# Target: T1, cannabinoid receptor 1 (CB1) (Homo sapiens, UniProt P21554)
# T1 construct: gene CNR1
# Experiment: cell-based
# Set-up: species or system CHO-K1
# Conditions: read-out: Antagonist IC50 RC50
# Source text: For agonist analysis, we monitored “evaluation of potency” (EC50) and % efficacy (Max response), which were reflected by increased intracellular cAMP levels detected in cAMP Hunter™ Gs cell lines (CHO-K1 lines) overexpressing human CNR1 (i.e., gene encoding CB1) or CNR2 (i.e., gene encoding CB2). Alternatively, antagonist activity (i.e., inhibitory concentration or IC50) utilized a cAMP Hunter™ Gi cell lines (CHO-K1 lines), detecting an intracellular reduction in cAMP levels in cells overexpressing CNR1 and CNR2. These cell lines are designed to be used in conjunction with the HitHunter® cAMP Assay Detection Kit. Specifically, for agonist assay, cells were subjected to positive controls, known to activate the increase in cAMP for both receptors (agonist control 20 µM Forskolin for CB1 and 25 µM Forskolin for CB2). […] Prior to testing the cell, plating media were exchanged with 10 uL of Assay buffer (HBSS + 10 mM HEPES). Agonist results are expressed as percent efficacy relative to the maximum response of the control ligand (%Effc or EC50), while antagonist results are expressed as percent inhibition of the control ligand (IC50) normalized to the unantagonized vehicle.
# T1 sequence (P21554 whole entry): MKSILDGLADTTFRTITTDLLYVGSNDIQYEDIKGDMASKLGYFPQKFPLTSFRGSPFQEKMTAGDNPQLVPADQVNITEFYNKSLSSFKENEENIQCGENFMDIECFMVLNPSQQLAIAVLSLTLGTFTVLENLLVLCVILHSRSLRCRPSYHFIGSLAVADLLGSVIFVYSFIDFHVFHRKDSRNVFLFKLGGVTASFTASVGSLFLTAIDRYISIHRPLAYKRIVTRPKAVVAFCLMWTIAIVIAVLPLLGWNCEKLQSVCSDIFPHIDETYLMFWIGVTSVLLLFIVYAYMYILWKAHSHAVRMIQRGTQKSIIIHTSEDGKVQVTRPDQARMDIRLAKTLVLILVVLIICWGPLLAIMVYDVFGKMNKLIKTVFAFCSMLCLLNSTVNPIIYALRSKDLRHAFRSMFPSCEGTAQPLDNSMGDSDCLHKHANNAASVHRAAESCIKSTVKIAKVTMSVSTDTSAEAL
compound,measurement,value
Cc1c(C(=O)NN2CCOCC2)nn(-c2ccc(Cl)cc2Cl)c1-c1ccc(I)cc1 [AM281],IC50,22.4 nM

# Reference: publication PMC9777073, “A Fenchone Derivative Effectively Abrogates Joint Damage Following Post-Traumatic Osteoarthritis in Lewis Rats” (Cells, 2022)
